Data on eight compounds can be found in patent US10961252B2, “Quinazoline and indole compounds to treat medical disorders” (Achillion Pharmaceuticals, Inc., priority 2016, dated 2021).

A value given as a limit tells only on which side of the number the result lay.

The assay has as its system Normal Human Serum (NHS). Description: Hemolysis assay: lysis of rabbit erythrocytes (RE) by Normal Human Serum (NHS). The assay is classed as cell-based. To be noted: rabbit erythrocyte, 0.5 h, Table 3, hemolysis of rabbit erythrocytes with NHS, GVB0 plus 10 mM Mg-EGTA, 37° C., read-out: IC50 (Stars). The protocol:
The hemolysis assay was previously described by G. Ruiz-Gomez, et al., J. Med. Chem. (2009) 52: 6042-6052. Prior to the assay, the optimum concentration of Normal Human Serum (NHS) needed to achieve 100% lysis of rabbit erythrocytes (RE) is determined by titration. In the assay, NHS (Complement Technology) is diluted in GVB^0 Buffer (0.1% gelatin, 5 mM Veronal, 145 mM NaCl, 0.025% NaN3, pH 7.3, Complement Technology) plus 10 mM Mg-EGTA and incubated with test compound at various concentrations for 15 minutes at 37° C. RE (Complement Technology) freshly suspended in GVB^0 plus 10 mM Mg-EGTA are added to a final concentration of 1×10^8 cells/mL and reactions are incubated for 30 minutes at 37° C. Positive control reactions (100% lysis) consist of GVB^0 plus 10 mM Mg-EGTA with NHS and RE but without test compound; negative control reactions (0% lysis) consist of GVB^0 plus 10 mM Mg-EGTA with RE only. Samples are centrifuged at 2000 g for 3 minutes and supernatants collected. Absorbance at 405 nm (A405) is recorded using a microplate spectrophotometer. IC50 values are calculated by nonlinear regression from the percentage of hemolysis as a function of test compound concentration.
As for `COc1cc(C)c2[nH]ccc2c1CN1CCC(C)CC1c1ccc(C(=O)O)c2c1CCCC2` (centres unmarked) [Compound 28, 4-(1-((5-Methoxy-7-methyl-1H-indol-4-yl)methyl)-4-methylpiperidin-2-yl)-5,6,7,8-tetrahydronaphthalene-1-carboxylic Acid], the IC50 (as a rule, the concentration that gives 50% inhibition) was < 1000 nM. With `COc1cc(C)c2[nH]ccc2c1CN1CC[C@@H](C)C[C@H]1c1ccc(P(C)(=O)O)cc1` [Compound 29, 4-((2S, 4R)-1-((5-Methoxy-7-methyl-1H-indol-4-yl)methyl)-4-methylpiperidin-2-yl) Phenyl (Methyl) Phosphinic Acid], the IC50 was < 1000 nM.

For the compound `COc1cc(C)c2[nH]ccc2c1CN1CC[C@@H](C)C[C@H]1c1ccc([S@@](C)(=N)=O)cc1` [Compound 30, 5-Methoxy-7-methyl-4-(((2S,4R)-4-methyl-2-(4-((S)—S-methylsulfonimidoyl)phenyl)piperidin-1-yl)methyl)-1H-indole], the IC50 is < 1000 nM. Regarding `COc1cc(C)c2[nH]ccc2c1CN1CC[C@@H](C)C[C@H]1c1ccc([S@](C)(=N)=O)cc1` [Compound 31, 5-Methoxy-7-methyl-4-(((2S,4R)-4-methyl-2-(4-((R)—S-methylsulfonimidoyl)phenyl)piperidin-1-yl)methyl)-H-indole], the IC50 is < 1000 nM. To `COc1cc(C)c2[nH]ccc2c1CN1CC[C@@H](C)C[C@H]1c1ccc(P(=O)(O)O)cc1` [Compound 32, (4-((2S,4R)-1-((5-Methoxy-7-methyl-1H-indol-4-yl)methyl)-4-methylpiperidin-2-yl)phenyl)phosphonic Acid] belongs < 1000 nM; to `COc1cc(C)c2[nH]ccc2c1CN1CC[C@H](C)C[C@@H]1c1ccc(P(=O)(O)O)cc1` [Compound 33, 4-((2R, 4S)-1-((5-Methoxy-7-methyl-1H-indol-4-yl)methyl)-4-methylpiperidin-2-yl) Phenylphosphonic Acid], 1000 to 10000 nM.

Regarding `COc1cc(C)c2[nH]ccc2c1CN1CC[C@@H](C)C[C@H]1c1ccc(C(=O)O)c2c1CCCC2` [Compound 34, 4-((2S,4R)-1-((5-Methoxy-7-methyl-1H-indol-4-yl)methyl)-4-methylpiperidin-2-yl)-5,6,7,8-tetrahydronaphthalene-1-carboxylic Acid], the IC50 is < 1000 nM. As for `COc1cc(C)c2[nH]ccc2c1CN1CC[C@@H](C)C[C@@H]1c1ccc(C(=O)O)c2c1CCCC2` [Compound 35, 4-((2R,4R)-1-((5-Methoxy-7-methyl-1H-indol-4-yl)methyl)-4-methylpiperidin-2-yl)-5,6,7,8-tetrahydronaphthalene-1-carboxylic Acid], the IC50 was > 10000 nM.
